Target: CDK2/Cyclin E1 (Homo sapiens, UniProt P24941)
Experiment: CDK2/Cyclin E1 Caliper LabChip EZ Reader mobility shift assay
Format: biochemical
Set-up: purchased Eurofins 14-475
Conditions: read-out: Caliper Assay (CDK2/CCNE1): IC50
Procedure: Inhibition of CDK2/Cyclin E1 activity in the presence of compounds of the present disclosure was evaluated using a Caliper LabChip® EZ Reader mobility shift assay. In the assay, CDK2/Cyclin E1 (Eurofins, 14-475) catalyzed the phosphorylation of a fluorescently tagged peptide 5-FAM-QSPKKG-CONH2 (PerkinElmer, FL Peptide 18) which induced a difference in capillary electrophoresis mobility. The peptide substrate and product were measured, and the conversion ratio was used to determine the inhibition (as % activity and IC50 values) of CDK2/Cyclin E1. Reactions contained 50 mM HEPES pH 7.5, 10 mM MgCl2, 1 mM EDTA, 2 mM DTT, 0.01% Brij35, 0.5 mg/mL BSA, 0.1% DMSO, 2.5 nM CDK2/Cyclin E1, 100 μM ATP, and 1.5 μM fluorescent peptide substrate.
Dose titrations of inhibitors in 100% DMSO were combined with 3.25 nM CDK2/Cyclin E1 and 130 μM of ATP in reaction buffer. The mixtures were incubated for 30 minutes before the addition of fluorescent peptide substrate to initiate the kinase reaction. The final conditions were 2.5 nM CDK2/Cyclin E1, 100 μM ATP, and 1.5 μM fluorescent peptide. The reactions were stopped after 100 minutes with the addition of EDTA (400 mM final EDTA concentration). The stopped reactions were analyzed on a Caliper LabChip® EZ Reader II. The conversion ratios were normalized to yield % activity, plotted against compound concentration, and fit to a four-parameter equation to determine the IC50 for each compound.

| Structure (SMILES) | IC50 |
| --- | --- |
| C[C@@H](OCC1CCCCC1)[C@H](NC(=O)C1CN(C(=O)c2cnn(Cc3ccccc3)c2)CC12CN(C(=O)[C@H]1CC1(C)C)C2)C(=O)N1CCOCC1 (some centres unmarked) [I-152 mixture] | ≤ 10 nM |
| CNC(=O)[C@@H](NC(=O)[C@@H]1CN(C(=O)c2ccncc2)CC12CN(C(=O)[C@H]1CC1(C)C)C2)[C@@H](C)OCc1ccccc1 [I-46A] | > 10000 nM |
| C[C@@H](OCC1CCCCC1)[C@H](NC(=O)C1CN(C(=O)c2cnn(Cc3ccccc3)c2)CC12CN(C(=O)[C@H]1CC1(C)C)C2)C(=O)N1CCC(F)(F)CC1 (some centres unmarked) [I-149 mixture] | ≤ 10 nM |
| C[C@@H](OCC12CCC(CC1)OC2)[C@H](NC(=O)[C@@H]1CN(C(=O)c2cncs2)CC12CN(C(=O)[C@H]1CC1(C)C)C2)C(=O)N1CCC(C)(C)CC1 [I-452] | ≤ 10 nM |
| CNC(=O)[C@@H](NC(=O)[C@H]1CN(Cc2ccccn2)CC12CN(C(=O)[C@H]1CC1(C)C)C2)[C@@H](C)OCc1ccccc1 [I-40B] | > 10000 nM |
| COC1CCN(C(=O)[C@@H](NC(=O)[C@@H]2CN(C(=O)c3sc(C)nc3C)CC23CN(C(=O)[C@H]2CC2(C)C)C3)[C@@H](C)OCC23CCC(CC2)OC3)CC1 [I-451] | 10 to 100 nM |
| Cc1ccc(CNC(=O)[C@@H]2CN(C(=O)c3cnn(Cc4ccccc4)c3)CC23CN(C(=O)[C@H]2CC2(C)C)C3)cc1 [I-363] | 1000 to 10000 nM |
| CC(O[C@H](C)[C@@H](COC1CCC(F)(F)CC1)NC(=O)[C@@H]1CN(C(=O)c2cncs2)CC12CN(C(=O)[C@H]1CC1(F)F)C2)C1CCC(F)(F)CC1 (some centres unmarked) [I-316] | 100 to 1000 nM |
| CC1(C)C[C@@H]1C(=O)N1CC2(CN(C(=O)c3cnn(Cc4ccccc4)c3)C[C@@H]2C(=O)N[C@H]2C[C@@H]2c2cccc(Cl)c2)C1 [I-140B] | > 10000 nM |
| COC[C@H]1CCCN(C(=O)[C@@H](NC(=O)[C@@H]2CN(C(=O)c3cncs3)CC23CN(C(=O)[C@H]2CC2(C)C)C3)[C@@H](C)OCc2ccccc2F)C1 [I-321] | 10 to 100 nM |
| COC(=O)c1ccc(C2CCN(C(=O)[C@@H](NC(=O)[C@@H]3CN(C(=O)c4cnn(Cc5ccccc5)c4)CC34CN(C(=O)[C@H]3CC3(C)C)C4)[C@@H](C)OCC3CCCCC3)CC2)cc1 [I-147] | ≤ 10 nM |
| CNC(=O)[C@@H](NC(=O)[C@@H]1CN(C(=O)c2cnn(Cc3ccccc3)c2)CC12CN(C(=O)CC1CC1)C2)[C@@H](C)OCC1CCCCC1 [I-56A] | 100 to 1000 nM |
| CNC(=O)[C@@H](NC(=O)[C@@H]1CN(C(=O)c2cnc(COC)s2)CC12CN(C(=O)[C@H]1CC1(C)C)C2)[C@@H](C)OCC1CCCCC1 [I-145A] | 10 to 100 nM |
| C[C@@H](OCC1CCCCC1)[C@H](NC(=O)[C@@H]1CN(C(=O)c2cnn(Cc3ccccc3)c2)CC12CN(C(=O)[C@H]1CC1(C)C)C2)C(=O)N1CCC(c2cnc[nH]2)CC1 [I-438] | ≤ 10 nM |
| COC(=O)C1(NC(=O)[C@H]2CN(C(=O)c3cnn(Cc4ccccc4)c3)CC23CN(C(=O)[C@H]2CC2(C)C)C3)COC1 [I-142A] | > 10000 nM |
| C[C@@H](OCC1CCC(F)(F)CC1)[C@H](NC(=O)[C@@H]1CN(C(=O)c2cncs2)CC12CN(C(=O)[C@H]1CC1(C)C)C2)C(=O)N1CCC[C@H](COC(F)(F)F)C1 [I-326] | ≤ 10 nM |

Other lines, results leading:

| IC50 | Structure (SMILES) |
| --- | --- |
| ≤ 10 nM | C[C@@H](OCC1CCC(F)(F)CC1)[C@H](NC(=O)[C@@H]1CN(C(=O)c2cncs2)CC12CN(C(=O)[C@H]1CC1(C)C)C2)C(C)(C)O [I-313] |
| > 10000 nM | CC1(C)C[C@@H]1C(=O)N1CC2(CN(C(=O)c3cnn(Cc4ccccc4)c3)C[C@H]2C(=O)N2CCC[C@@H](OCC3CCCCC3)C2)C1 [I-254] |
| 1000 to 10000 nM | CNC(=O)[C@@H](NC(=O)[C@@H]1CN(C(=O)c2cnn(Cc3ccccc3)c2)CC12CN(C(=O)c1ccccc1)C2)[C@@H](C)OCc1ccccc1 [I-26A] |
| 1000 to 10000 nM | CN(C)C(=O)C(NC(=O)[C@@H]1CN(C(=O)c2cncs2)CC12CN(C(=O)C(C)(C)C1CC1)C2)c1cccc(C2CCOCC2)n1 (some centres unmarked) [I-340] |
| ≤ 10 nM | CNC(=O)[C@@H](NC(=O)[C@@H]1CN(C(=O)c2cncs2)CC12CN(C(=O)[C@H]1CC1(C)C)C2)[C@@H](C)OC[C@H]1CC[C@@H](C)CC1 [I-354] |
| 100 to 1000 nM | CNC(=O)[C@@H](NC(=O)[C@@H]1CN(C(=O)c2cnn(CC3CCOCC3)c2)CC12CN(C(=O)[C@H]1CC1(C)C)C2)[C@@H](C)OCc1ccccc1 [I-95A] |
| 100 to 1000 nM | C[C@@H](OCC1(C(F)(F)F)CC1)[C@H](NC(=O)[C@H]1CN(C(=O)c2cncs2)CC12CN(C(=O)[C@H]1CC1(C)C)C2)C(=O)N1CCC(F)(F)CC1 [I-291] |
| > 10000 nM | CO[C@H]1COCC[C@@H]1NC(=O)[C@H]1CN(C(=O)c2cnn(Cc3ccccc3)c2)CC12CN(C(=O)[C@H]1CC1(C)C)C2 [I-148B] |
| > 10000 nM | CNC(=O)[C@@H](NC(=O)[C@@H]1CN(C(=O)c2cncs2)CC12CN(Cc1ccco1)C2)[C@@H](C)OCC12CCC(CC1)OC2 [I-349] |
| 100 to 1000 nM | CNC(=O)[C@@H](NC(=O)[C@@H]1CN(C(=O)c2cnn(Cc3ccccc3)c2)CC12CN(C(=O)CC(C)(C)C)C2)[C@@H](C)OCc1ccccc1 [I-62A] |
| ≤ 10 nM | CNC(=O)[C@@H](NC(=O)[C@@H]1CN(C(=O)c2cnn(Cc3ccccc3)c2)CC12CN(C(=O)[C@H]1CC1(C)C)C2)[C@@H](C)OCc1ccc(Br)cc1 [I-263] |
| 10 to 100 nM | CNC(=O)[C@@H](NC(=O)[C@@H]1CN(C(=O)c2cnn(Cc3ccccc3)c2)CC12CN(C(=O)[C@H]1CC1(C)C)C2)[C@@H](C)OCC1CCC1 [I-144A] |
| > 10000 nM | CNC(=O)[C@@H](NC(=O)[C@@H]1CN(C(=O)c2cncs2)CC12CN(CC1CCOC1)C2)[C@@H](C)OCC12CCC(CC1)OC2 (some centres unmarked) [I-345] |
| > 10000 nM | CNC(=O)[C@@H](NC(=O)[C@@H]1CN(C(=O)c2scnc2C2CCCC2)CC12CN(C(=O)[C@H]1CC1(C)C)C2)[C@@H](C)OCC1CCCCC1 [I-224B] |
| 10 to 100 nM | C[C@@H](OCC1CCOCC1)[C@H](NC(=O)[C@@H]1CN(C(=O)c2cn[nH]c2)CC12CN(C(=O)[C@H]1CC1(C)C)C2)C(=O)N1CCC(F)(F)CC1 [I-297] |
| 100 to 1000 nM | CNC(=O)[C@@H](NC(=O)[C@@H]1CN(C(=O)c2cnn(Cc3ccccc3)c2)CC12CN(C(=O)C1(F)CC1)C2)[C@@H](C)OCc1ccccc1 [I-71A] |
| 10 to 100 nM | C[C@@H]1C[C@H](C)CN(C(=O)[C@@H](NC(=O)C2CN(C(=O)c3cnn(Cc4ccccc4)c3)CC23CN(C(=O)[C@H]2CC2(C)C)C3)[C@@H](C)OCc2ccccc2)C1 (some centres unmarked) [I-22] |
| 10 to 100 nM | COC[C@H]1CCCN(C(=O)[C@@H](NC(=O)[C@@H]2CN(C(=O)c3cncs3)CC23CN(C(=O)[C@H]2CC2(C)C)C3)[C@@H](C)OC[C@H]2CC[C@@H](OC)CC2)C1 [I-408] |
| > 10000 nM | CC1(C)C[C@@H]1C(=O)N1CC2(CN(C(=O)c3cnn(Cc4ccccc4)c3)C[C@H]2C(=O)NCC2CCCCO2)C1 (some centres unmarked) [I-221] |
| 100 to 1000 nM | COC[C@H]1CCCN(C(=O)[C@@H](NC(=O)[C@@H]2CN(C(=O)c3cncs3)CC23CN(C(=O)C(C)(C)C2CC2)C3)[C@@H](C)OC[C@H]2CC[C@H](O)CC2)C1 [I-431] |
| 10 to 100 nM | [2H]C([2H])([2H])OC[C@H]1CCCN(C(=O)[C@@H](NC(=O)[C@@H]2CN(C(=O)c3cncs3)CC23CN(C(=O)C(C)(C)C2CC2)C3)[C@@H](C)OCC23CCC(CC2)OC3)C1 [I-459] |
| > 10000 nM | C[C@@H](NC(=O)[C@@H]1CN(C(=O)c2cnn(Cc3ccccc3)c2)CC12CN(C(=O)[C@H]1CC1(C)C)C2)c1cccc(F)c1 [I-128A] |

Source: patent US20240174680A1, “CDK2 INHIBITORS AND METHODS OF USING THE SAME” (Cedilla Therapeutics, Inc., priority 2021, published 2024)
